From ChEMBL document CHEMBL1153850, “Novel derivatives of 6-mercaptopurine: synthesis, characterization and antiproliferative activities of S-allylthio-mercaptopurines” (Eur J Med Chem, 2009) come the findings set out here.

As usually defined, the IC50 is the concentration needed to halve the response being measured.

One assay has as its system Jurkat. Description: Antiproliferative activity against human Jurkat cells assessed as [methyl-3H]thymidine incorporation after 16 hrs by XTT assay. The assay is classed as functional, cell-based. (In general: Incorporation of labelled thymidine or its analogues reports DNA synthesis.)
Assay [1] relates to NCI-N87. Description: Antiproliferative activity against human NCI-N87 cells at 150 uM after 16 hrs by XTT assay. The assay is classed as functional. Background: Tetrazolium dyes change colour on reduction, which living cells bring about.
The subject of assay [2] is HL-60. Description: Antiproliferative activity against human HL60 cells assessed as cell viability after 16 hrs by [methyl-3H]thymidine incorporation based XTT assay relative to control. The assay is classed as functional.
The subject of assay [3] is HeLa. Description: Antiproliferative activity against human HeLa cells assessed as cell viability after 16 hrs by [methyl-3H]thymidine incorporation based XTT assay relative to control. The assay is classed as functional.
Another assay deals with MOLT-4. The experiment in a line: Antiproliferative activity against human MOLT4 cells assessed as [methyl-3H]thymidine incorporation after 16 hrs by XTT assay. The assay is classed as functional, cell-based. The conditions noted are these: MOLT-4, 16 h.
The test system of the next assay is U-937. Description: Antiproliferative activity against human U937 cells assessed as [methyl-3H]thymidine incorporation after 16 hrs by XTT assay. The assay is classed as functional, cell-based. The following applies: U-937, 16 h.
The test system of assay [4] is HeLa. The experiment in a line: Antiproliferative activity against human HeLa cells assessed as [methyl-3H]thymidine incorporation after 16 hrs by XTT assay. The assay is classed as functional, cell-based.
The subject of assay [5] is HL-60. The experiment in a line: Antiproliferative activity against human HL60 cells assessed as [methyl-3H]thymidine incorporation after 16 hrs by XTT assay. The assay is classed as functional, cell-based. The following applies: HL-60, 16 h.
The test system of assay [6] is NCI-N87. The experiment in a line: Antiproliferative activity against human NCI-N87 cells assessed as residual proliferation at 50 uM after 16 hrs by XTT assay. The assay is classed as functional.
The nature of assay [7]: Induction of apoptosis in human B-CLL cells assessed as increase in apoptotic cells at 50 uM after 16 hrs by FACS analysis. The assay is classed as functional.
The test system of assay [8] is Daudi. Description: Antiproliferative activity against human Daudi cells assessed as [methyl-3H]thymidine incorporation after 16 hrs by XTT assay. The assay is classed as functional, cell-based.
In assay [9] the test system is Daudi. Description: Cytotoxicity against human Daudi cells assessed as residual cell viability at 50 uM after 16 hrs by trypan blue exclusion assay relative to control. The assay is classed as functional.
The test system of assay [10] is Daudi. Description: Antiproliferative activity against human Daudi cells at <=20 uM assessed as [methyl-3H]thymidine incorporation after 16 hrs by XTT assay relative to control. The assay is classed as functional.
The subject of assay [11] is HeLa. Description: Cytotoxicity against human HeLa cells assessed as reduced cell viability at 150 uM by trypan blue exclusion assay relative to control. The assay is classed as functional.
Assay [12] concerns HT-29. The experiment in a line: Cytotoxicity against multidrug-resistant human HT-29 cells assessed as reduced cell viability at 150 uM by trypan blue exclusion assay relative to control. The assay is classed as functional.
Assay [13] has as its system Daudi. Description: Antiproliferative activity against human Daudi cells at 50 uM after 16 hrs by XTT assay. The assay is classed as functional.
Assay [14] concerns HT-29. The experiment in a line: Induction of multidrug-resistant human HT-29 cell death at 150 uM after 16 hrs using propidium iodide staining by fluorescence microscopy. The assay is classed as functional, cell-based.
Assay [15] has as its system HT-29. Description: Cytotoxicity against multidrug-resistant human HT-29 cells assessed as inhibition of epithelial-like growth at 150 uM after 16 hrs using propidium iodide staining by phase-contrast microscopy. The assay is classed as functional, cell-based.
A short description of assay [16]: Cytotoxicity against human B-CLL cells assessed as residual cell viability at 150 uM after 16 hrs by trypan blue exclusion assay relative to control. The assay is classed as functional.
A short description of assay [17]: Induction of apoptosis in human B-CLL cells assessed as increase in apoptotic cells at 100 uM after 16 hrs by FACS analysis. The assay is classed as functional.
The subject of assay [18] is HeLa. Description: Antiproliferative activity against human HeLa cells at 110 uM assessed as [methyl-3H]thymidine incorporation after 16 hrs by XTT assay relative to control. The assay is classed as functional, cell-based.
Assay [19] relates to NCI-N87. The experiment in a line: Antiproliferative activity against human NCI-N87 cells assessed as [methyl-3H]thymidine incorporation after 16 hrs by XTT assay. The assay is classed as functional, cell-based. The following applies: for IC50: NCI-N87, 16 h.
In assay [20] the test system is NCI-N87. Description: Antiproliferative activity against human NCI-N87 at 100 uM assessed as [methyl-3H]thymidine incorporation after 16 hrs by XTT assay relative to control. The assay is classed as functional, cell-based.
For assay [21], the system named is HT-29. Description: Antiproliferative activity against multidrug-resistant human HT-29 cells assessed as [methyl-3H]thymidine incorporation after 16 hrs by XTT assay. The following applies: HT-29, 16 h. The assay is classed as functional, cell-based.
Assay [22] deals with NCI-N87. The experiment in a line: Antiproliferative activity against human NCI-N87 cells assessed as residual proliferation at 100 uM after 16 hrs by XTT assay. The assay is classed as functional.
The test system of assay [23] is Daudi. The experiment in a line: Antiproliferative activity against human Daudi cells assessed as residual proliferation at 50 uM after 16 hrs by XTT assay. The assay is classed as functional.
For assay [24], the system named is Daudi. The experiment in a line: Antiproliferative activity against human Daudi cells assessed as residual proliferation at 100 uM after 16 hrs by XTT assay. The assay is classed as functional.
A further assay relates to PBMC. Description: Inhibition of T cell mitogen-induced blastogenesis in human PBMC after 4 days. The assay is classed as functional, cell-based. The conditions noted are these: 96 h.
The test system of assay [25] is HeLa. The experiment in a line: Cytotoxicity against human HeLa cells assessed as reduced cell viability at 200 uM by trypan blue exclusion assay relative to control. The assay is classed as functional.
Assay [26] in a line: Antiproliferative activity against human B-CLL cells assessed as cell viability after 16 hrs by trypan blue exclusion assay. The assay is classed as functional, cell-based.
A short description of assay [27]: Induction of apoptosis in human B-CLL cells assessed as increase in apoptotic cells at 150 uM after 16 hrs by FACS analysis. The assay is classed as functional. A general note: Flow cytometry measures light scatter and fluorescence of single cells or particles in a stream.
The nature of assay [28]: Induction of apoptosis in human B-CLL cells after 48 hrs by FACS analysis. The assay is classed as functional, cell-based.

Structures are written as SMILES. The source made the active and inactive calls. No cut-off for these calls is given here.

As to `OC[C@@H]1O[C@H](n2cnc3c(S)ncnc32)[C@@H](O)[C@H]1O`, the IC50 is 99 µM in the assay with Jurkat, 24.8 µM in the assay on MOLT-4 and above 200 µM with U-937. Moreover, in the assay on NCI-N87 [1], the Activity is listed as 75%. The outcome with HL-60 [2] and in the assay with HeLa [3] was inactive.
In the case of `C=CCSSc1ncnc2nc[nH]c12`, the Activity result is “Dose-dependent effect” in the assay with HeLa [4]; 50% with NCI-N87 [6]; 37.88% in [7]; “Dose-dependent effect” in the assay with Daudi [8]; 20% in the assay on Daudi [9]; 50% in the assay on Daudi [10]. Moreover, the Activity with HeLa [11] was 65%; with HT-29 [12] it was 40%; in the assay with Daudi [13], 15%; in [16], 75%; in assay [17] it was 95.26%; in the assay with NCI-N87 [19], “Dose-dependent effect”. The IC50 in the assay on HL-60 [5] amounted to 42 µM; with Jurkat it was 54.7 µM; in the assay on Daudi [8] it was 38.3 µM; in the assay with MOLT-4, 8.9 µM; in the assay on U-937, 46.7 µM; in the assay on NCI-N87 [19], 70.5 µM. Further, the outcome with HT-29 [14], in the assay on HT-29 [15], in the assay with HeLa [18] and in the assay on NCI-N87 [20] was Active.
Take `C=CCSSc1ncnc2c1ncn2[C@H]1O[C@@H](CO)[C@H](O)[C@@H]1O`: the IC50 is above 200 µM with HeLa [4]; 86.1 µM in the assay with HL-60 [5]; above 200 µM in the assay with HT-29 [21]; 69.1 µM in the assay with Jurkat; 70.8 µM with Daudi [8]; 16.9 µM in the assay on MOLT-4. The IC50 in the assay with U-937 was determined as 113 µM; in the assay with NCI-N87 [19] it was 120 µM. Moreover, the Activity with NCI-N87 [6] is given as 70%; with NCI-N87 [22], 55%; in the assay on Daudi [23], 60%; with Daudi [24], 25%. In addition, the result in the assay with NCI-N87 [1] was Active.
For the compound `Sc1ncnc2nc[nH]c12` [MERCAPTOPURINE ANHYDROUS], the Activity entry with HeLa [4] was “Dose-dependent effect”; with NCI-N87 [1], 80%; in [7], 9.78%; with Daudi [8], “Dose-dependent effect”; with HeLa [25] it was 75%; in assay [17], 9.7%. The Activity result with NCI-N87 [19] is “Dose-dependent effect”; in assay [27], 8.68%. Moreover, the IC50 in the assay with HeLa [4] is above 200 µM; in the assay on HT-29 [21], above 200 µM; with Jurkat, above 200 µM; in the assay on PBMC it was 0.149 µM; in the assay on Daudi [8], above 200 µM; in [26] it was above 200 µM. In addition, the results for the IC50 in the assay on MOLT-4 and with U-937 were 50.5 µM and above 200 µM, respectively. In addition, the result with Daudi [10], in the assay with HT-29 [15], in the assay with HeLa [18] and with NCI-N87 [20] was inactive.
For the compound `C=CCS[S+]([O-])CC=C` (stereo not drawn) [ALLICIN], the IC50 in the assay with HL-60 [5] is 5.5 µM; with HT-29 [21], 83.8 µM; in assay [28], 20 µM; with Daudi [8] it was 35.3 µM; in the assay with U-937, 19.7 µM; with NCI-N87 [19], 16.8 µM.
In the assay on PBMC, `Cn1cnc([N+](=O)[O-])c1Sc1ncnc2[nH]cnc12` [AZATHIOPRINE] displayed a half-maximal inhibitory concentration (IC50) of 0.23 µM.
